Experimental data published in patent US9598433B2, “Hepatitis C virus inhibitors” (BRISTOL-MYERS SQUIBB COMPANY, priority 2012, dated 2017).
Read-outs that look alike come from different tables or passages of the source.

Columns and labels:
[1] = system: HCV genotype 1b (Con1) replicon in HUH-7 cells; assay: HCV replicon luciferase reporter assay, genotype 1b; type: cell-based; settings: Hepatitis C virus, 72 h, genotype 1b replicon, 3 days incubation
Method in brief: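 The HUH-7 cells stably carried a genotype 1b Con1 replicon with a Renilla luciferase reporter and the S1179I adaptive mutation. Luminescence was read after 2 h with 7.5 μM EnduRen, and EC50s came from four-parameter logistic fits.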

[2] = system: HCV genotype 1a (H77 strain) replicon in HUH-7 cells; assay: HCV replicon luciferase reporter assay, genotype 1a; type: cell-based; settings: Hepatitis C virus, 72 h, genotype 1a replicon, 3 days incubation
Method in brief: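 Stable HUH-7 line carrying luciferase-reporter genotype 1a (H77) replicon with adaptive NS3 P1496L and NS5A S2204I mutations; 3.0×10^3 cells/well in 4% FCS, 0.5% DMSO, twenty-point 3-fold titration, 3 days at 37 °C. Renilla luminescence with 7.5 μM EnduRen; EC50 by four-parameter logistic fit; CC50 by multiplexed Cell Titer-Blue.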

| SMILES | EC50 ([1]; read-out: LE_1b (EC50, range)) | EC50 ([2]; read-out: LE_1a (EC50, range)) | EC50 ([1]; read-out: LE_1b (EC50)) | EC50 ([2]; read-out: LE_1a (EC50)) |
| --- | --- | --- | --- | --- |
| CC[C@@H]1O[C@H](C)CC/C=C\[C@@H]2C[C@@]2(C(=O)NS(=O)(=O)C2(C)CC2)NC(=O)[C@@H]2C[C@@H](Oc3nc4c(c5cc(OC)ccc35)CCCO4)CN2C(=O)[C@H]1NC(=O)OC(C)(C)C(C)(F)F [Compound 2308, 3,3-difluoro-2-methylbutan-2-yl ((2R,6S,7S,9R,13aS,14aR,16aS,Z)-7-ethyl-2-((9-methoxy-2,3-dihydro-1H-pyrano[2,3-c]isoquinolin-6-yl)oxy)-9-methyl-14a-(((1-methylcyclopropyl)sulfonyl)carbamoyl)-5,16-dioxo-2,3,5,6,7,9,10,11,13a,14,14a,15,16,16a-tetradecahydro-1H-cyclopropa[i]pyrrolo[1,2-e][1,5,8]oxadiazacyclopentadecin-6-yl)carbamate] | 0.1 to 0.5 nM | 0.1 to 0.5 nM |  |  |
| COc1ccc2c(O[C@@H]3C[C@H]4C(=O)N[C@]5(C(=O)NS(=O)(=O)C6(C)CC6)C[C@H]5/C=C\CC[C@@H](C)O[C@@H](C)[C@H](NC(=O)OC(C)(C)C(F)(F)F)C(=O)N4C3)nc3c(c2c1)CCCO3 [Compound 2306, 1,1,1-trifluoro-2-methylpropan-2-yl ((2R,6S,7S,9R,13aS,14aR,16aS,Z)-2-((9-methoxy-2,3-dihydro-1H-pyrano[2,3-c]isoquinolin-6-yl)oxy)-7,9-dimethyl-14a-(((1-methylcyclopropyl)sulfonyl)carbamoyl)-5,16-dioxo-2,3,5,6,7,9,10,11,13a,14,14a,15,16,16a-tetradecahydro-1H-cyclopropa[i]pyrrolo[1,2-e][1,5,8]oxadiazacyclopentadecin-6-yl)carbamate] | 0.1 to 0.5 nM | 0.1 to 0.5 nM |  |  |
| CCOc1cc2ccnc(O[C@@H]3C[C@H]4C(=O)N[C@]5(C(=O)NS(=O)(=O)C6(C)CC6)C[C@H]5/C=C\CC[C@@H](C)O[C@@H](CC)[C@H](NC(=O)OC(C)(C)C(F)(F)F)C(=O)N4C3)c2cc1F [Compound 2608, 1,1,1-trifluoro-2-methylpropan-2-yl ((2R,6S,7S,9R,13aS,14aR,16aS,Z)-2-((6-ethoxy-7-fluoroisoquinolin-1-yl)oxy)-7-ethyl-9-methyl-14a-(((1-methylcyclopropyl)sulfonyl)carbamoyl)-5,16-dioxo-2,3,5,6,7,9,10,11,13a,14,14a,15,16,16a-tetradecahydro-1H-cyclopropa[i]pyrrolo[1,2-e][1,5,8]oxadiazacyclopentadecin-6-yl)carbamate] | 0.1 to 0.5 nM | 0.51 to 1 nM |  |  |
| COc1cc(F)cc2c(O[C@@H]3C[C@H]4C(=O)N[C@]5(C(=O)NS(=O)(=O)C6(C)CC6)C[C@H]5/C=C\CC[C@@H](C)O[C@@H](C)[C@H](NC(=O)OC(C)(C)C(C)(F)F)C(=O)N4C3)nccc12 [Compound 2018, 3,3-difluoro-2-methylbutan-2-yl ((2R,6S,7S,9R,13aS,14aR,16aS,Z)-2-((7-fluoro-5-methoxyisoquinolin-1-yl)oxy)-7,9-dimethyl-14a-(((1-methylcyclopropyl)sulfonyl)carbamoyl)-5,16-dioxo-2,3,5,6,7,9,10,11,13a,14,14a,15,16,16a-tetradecahydro-1H-cyclopropa[i]pyrrolo[1,2-e][1,5,8]oxadiazacyclopentadecin-6-yl)carbamate] | 0.1 to 0.5 nM | 0.51 to 1 nM |  |  |
| CC[C@@H]1O[C@H](C)CC/C=C\[C@@H]2C[C@@]2(C(=O)NS(=O)(=O)C2(C)CC2)NC(=O)[C@@H]2C[C@@H](Oc3nc4cc(OC)ccc4nc3C(F)(F)F)CN2C(=O)[C@H]1NC(=O)OC(C)(C)C(C)(F)F [Compound 1016, 3,3-difluoro-2-methylbutan-2-yl ((2R,6S,7S,9R,13aS,14aR,16aS,Z)-7-ethyl-2-((7-methoxy-3-(trifluoromethyl)quinoxalin-2-yl)oxy)-9-methyl-14a-(((1-methylcyclopropyl)sulfonyl)carbamoyl)-5,16-dioxo-2,3,5,6,7,9,10,11,13a,14,14a,15,16,16a-tetradecahydro-1H-cyclopropa[i]pyrrolo[1,2-e][1,5,8]oxadiazacyclopentadecin-6-yl)carbamate] | 0.1 to 0.5 nM | 0.1 to 0.5 nM |  |  |
| CC[C@@H]1O[C@H](C)CC/C=C\[C@@H]2C[C@@]2(C(=O)NS(=O)(=O)C2(C)CC2)NC(=O)[C@@H]2C[C@@H](Oc3nc(-c4ccc(OC(C)C)cn4)cc4cc(OC)ccc34)CN2C(=O)[C@H]1NC(=O)OC(C)(C)C(C)(F)F [Compound 2613, 3,3-difluoro-2-methylbutan-2-yl ((2R,6S,7S,9R,13aS,14aR,16aS,Z)-7-ethyl-2-((3-(5-isopropoxypyridin-2-yl)-6-methoxyisoquinolin-1-yl)oxy)-9-methyl-14a-(((1-methylcyclopropyl)sulfonyl)carbamoyl)-5,16-dioxo-2,3,5,6,7,9,10,11,13a,14,14a,15,16,16a-tetradecahydro-1H-cyclopropa[i]pyrrolo[1,2-e][1,5,8]oxadiazacyclopentadecin-6-yl)carbamate] | 0.1 to 0.5 nM | 1.01 to 5 nM |  |  |
| CC[C@@H]1OCCC/C=C\[C@@H]2C[C@@]2(C(=O)NS(=O)(=O)C2(C)CC2)NC(=O)[C@@H]2C[C@@H](Oc3nccc4cc(OC)c(F)cc34)CN2C(=O)[C@H]1NC(=O)OC(C)(C)C(F)(F)F [Compound 1009] | 1.01 to 5 nM | 1.01 to 5 nM |  |  |
| COc1ccc2c(O[C@@H]3C[C@H]4C(=O)N[C@]5(C(=O)NS(=O)(=O)C6(C)CC6)C[C@H]5/C=C\CC[C@@H](C)O[C@@H](C)[C@H](NC(=O)OC(C)(C)C(F)(F)F)C(=O)N4C3)nccc2c1 [Compound 2002, 1,1,1-trifluoro-2-methylpropan-2-yl ((2R,6S,7S,9R,13aS,14aR,16aS,Z)-2-((6-methoxyisoquinolin-1-yl)oxy)-7,9-dimethyl-14a-(((1-methylcyclopropyl)sulfonyl)carbamoyl)-5,16-dioxo-2,3,5,6,7,9,10,11,13a,14,14a,15,16,16a-tetradecahydro-1H-cyclopropa[i]pyrrolo[1,2-e][1,5,8]oxadiazacyclopentadecin-6-yl)carbamate] | 0.1 to 0.5 nM | 0.51 to 1 nM |  |  |
| CC[C@@H]1O[C@H](C)CC/C=C\[C@@H]2C[C@@]2(C(=O)NS(=O)(=O)C2CC2)NC(=O)[C@@H]2C[C@@H](Oc3nc(OC)cc4cc(OC)ccc34)CN2C(=O)[C@H]1NC(=O)OC(C)(C)C(F)(F)F [Compound 1008, 1,1,1-trifluoro-2-methylpropan-2-yl ((2R,6S,7S,9R,13aS,14aR,16aS,Z)-14a-((cyclopropylsulfonyl)carbamoyl)-2-((3,6-dimethoxyisoquinolin-1-yl)oxy)-7-ethyl-9-methyl-5,16-dioxo-2,3,5,6,7,9,10,11,13a,14,14a,15,16,16a-tetradecahydro-1H-cyclopropa[i]pyrrolo[1,2-e][1,5,8]oxadiazacyclopentadecin-6-yl)carbamate] | 0.1 to 0.5 nM | 0.1 to 0.5 nM | 0.28 nM | 0.41 nM |
| CC[C@@H]1O[C@H](C)CC/C=C\[C@@H]2C[C@@]2(C(=O)NS(=O)(=O)C2(C)CC2)NC(=O)[C@@H]2C[C@@H](Oc3nc4c(c5ccccc35)CCCO4)CN2C(=O)[C@H]1NC(=O)OC(C)(C)C(F)(F)F [Compound 2302, 1,1,1-trifluoro-2-methylpropan-2-yl ((2R,6S,7S,9R,13aS,14aR,16aS,Z)-2-((2,3-dihydro-1H-pyrano[2,3-c]isoquinolin-6-yl)oxy)-7-ethyl-9-methyl-14a-(((1-methylcyclopropyl)sulfonyl)carbamoyl)-5,16-dioxo-2,3,5,6,7,9,10,11,13a,14,14a,15,16,16a-tetradecahydro-1H-cyclopropa[i]pyrrolo[1,2-e][1,5,8]oxadiazacyclopentadecin-6-yl)carbamate] | 0.1 to 0.5 nM | 0.51 to 1 nM |  |  |
